From US12319697B2, “Process for preparing imidazole derivatives” (Bayer Aktiengesellschaft, priority 2018, dated 2025) come the findings set out here.

Data set [1] is described as follows: log P[a] by reversed-phase HPLC (C18), LC-UV in the acidic range, EEC Directive 79/831 Annex V.A8. Type of data set: physicochemical. As to conditions: 0.9 ml/l formic acid in water and 1.0 ml/l formic acid in acetonitrile, gradient 10% to 95% acetonitrile; for chromatographic logP: reversed-phase HPLC column (C18). The method, then:
(§1) The log P values were determined according to EEC Directive 79/831 Annex V.A8 by HPLC (high-performance liquid chromatography) on a reversed-phase column (C18) using the following methods: The log P[a] value is determined by LC-UV measurement in the acidic range using 0.9 ml/1 formic acid in water and 1.0 ml/1 formic acid in acetonitrile as mobile phases (linear gradient from 10% acetonitrile to 95% acetonitrile). Calibration was carried out using a homologous series of straight-chain alkan-2-ones (having 3 to 16 carbon atoms) with known log P values. The values between successive alkanones are determined by linear regression.

The nature of data set [2]: log P[n] by reversed-phase HPLC (C18), LC-UV in the neutral range, EEC Directive 79/831 Annex V.A8. It is filed as physicochemical. As to conditions: 79 mg/l ammonium carbonate in water and acetonitrile, gradient 10% to 95% acetonitrile; for chromatographic logP: reversed-phase HPLC column (C18). As to the method: as §1, with “acetonitrile). The log P[n] value is determined by LC-UV measurement in the neutral range using 79 mg/l ammonium carbonate in water and acetonitrile as mobile phases (linear gradient from 10% acetonitrile to 95% acetonitrile).” for “acetonitrile).”

The term chromatographic logP denotes lipophilicity estimated from chromatographic retention. Lower therefore signals a more hydrophilic compound.

For `CCSc1c(-c2nc3cc(C(F)(F)C(F)(F)F)nnc3n2C)nc(-c2ccc(Cl)cc2)n1C`, the chromatographic logP came out at 4.82 in data set [1] and 4.6 in data set [2].
For `CCSc1c(-c2nc3cc(SC(F)(F)F)nnc3n2C)nc(C2CC2)n1C`, the chromatographic logP in data set [1] stood at 3.5; in data set [2], 3.4.
For `CCS(=O)(=O)c1c(-c2nc3cc(C(F)(F)C(F)(F)F)nnc3n2C)ncn1C` [Example 4, 6-[5-(ethylsulfonyl)-1-methyl-1H-imidazol-4-yl]-7-methyl-3-(pentafluoroethyl)-7H-imidazo[4,5-c]pyridazine], the chromatographic logP stood at 2.2 in data set [1] and 2.21 in data set [2].
As for `CCSc1c(-c2nc3cc(C(F)(F)F)ncc3n2C)nc(Br)n1C` [Example 8, 2-[2-bromo-5-(ethylsulfanyl)-1-methyl-1H-imidazol-4-yl]-3-methyl-6-(trifluoromethyl)-3H-imidazo[4,5-c]pyridine], the chromatographic logP in data set [1] was 3.04; in data set [2], 2.85.
Turning to `CCSc1c(-c2nc3cc(Br)cnc3n2C)nc(C2CC2)n1C` [Example 7, 6-bromo-2-[2-cyclopropyl-5-(ethylsulfanyl)-1-methyl-1H-imidazol-4-yl]-3-methyl-3H-imidazo[4,5-b]pyridine], the chromatographic logP in data set [1] was 2.92; in data set [2], 3.23.
On the same counts, the results for `CCSc1c(-c2nc3cc(C(F)(F)C(F)(F)F)nnc3n2C)nc(C2CC2)n1C` are 3.85 and 3.75.
On to `CCSc1c(I)ncn1C` [Example 8 Step 1, 5-(ethylsulfanyl)-4-iodo-1-methyl-1H-imidazole], for which the figures for the chromatographic logP in data set [1] and in data set [2] were 1.61 and 1.91, respectively.
On to `CCSc1c(-c2nc3cc(C(F)(F)C(F)(F)F)nnc3n2C)nc(-c2ccc(Cl)cn2)n1C`, for which the results for the chromatographic logP in data set [1] and in data set [2] were 5.25 and 4.66, respectively.
For the molecule `CCSc1c(-c2nc3cc(C(F)(F)C(F)(F)F)nnc3n2C)ncn1C` [Example 3, 6-[5-(ethylsulfanyl)-1-methyl-1H-imidazol-4-yl]-7-methyl-3-(pentafluoroethyl)-7H-imidazo[4,5-c]pyridazine], the chromatographic logP in data set [1] came out at 2.88; in data set [2], 2.86.
On the same counts, the results for `CCSc1c(-c2nc3cc(C(F)(F)C(F)(F)F)nnc3n2C)nc(-c2ccc(Cl)s2)n1C` are 5.14 and 4.92.
In the case of `Cn1cnc2cc(C(F)(F)F)ncc21` [Example 8 Step 3, 3-methyl-6-(trifluoromethyl)-3H-imidazo[4,5-c]pyridine], the values for the chromatographic logP in data set [1] and in data set [2] were 1.04 and 1.1, respectively.
Regarding `CCSc1c(-c2nc3cc(C(F)(F)C(F)(F)F)ncc3n2C)ncn1C` [Example 6, 2-[5-(ethylsulfanyl)-1-methyl-1H-imidazol-4-yl]-3-methyl-6-(pentafluoroethyl)-3H-imidazo[4,5-c]pyridine], the chromatographic logP in data set [1] turned out to be 2.7; in data set [2], 2.71.
`CCSc1c(-c2nc3cc(SC(F)(F)F)nnc3n2C)nc(-c2ccc(Cl)cc2)n1C`: the chromatographic logP in data set [1] turned out to be 4.51; in data set [2], 4.34.
On the same counts, the results for `CCSc1c(I)nc(Br)n1C` [Example 8 Step 2, 2-bromo-5-(ethylsulfanyl)-4-iodo-1-methyl-1H-imidazole] are 2.77 and 2.68.
`CCSc1c(-c2nc3cc(C(F)(F)F)nnc3n2C)nc(-c2ccc(Cl)cc2)n1C` [Example 2, 6-[2-(4-chlorophenyl)-5-(ethylsulfanyl)-1-methyl-1H-imidazol-4-yl]-7-methyl-3-(trifluoromethyl)-7H-imidazo[4,5-c]pyridazine]: in data set [1] (listed as Comparative Example), the “log P[a]” value came to 4.35. Also, the chromatographic logP in data set [1] amounted to 4.23; in data set [2], 4.08. In data set [2] (listed as Comparative Example), the “log P[n]” value amounted to 4.07.
In the case of `CCSc1c(-c2nc3cc(C(F)(F)F)nnc3n2C)ncn1C` [Example 1, 6-[5-(ethylsulfanyl)-1-methyl-1H-imidazol-4-yl]-7-methyl-3-(trifluoromethyl)-7H-imidazo[4,5-c]pyridazine], the chromatographic logP in data set [1] came to 2.26; in data set [2] it was 2.37.
For the molecule `CCSc1c(-c2nc3cc(C(F)(F)C(F)(F)F)nnc3n2C)nc(Br)n1C` [Example 5, 6-[2-bromo-5-(ethylsulfanyl)-1-methyl-1H-imidazol-4-yl]-7-methyl-3-(pentafluoroethyl)-7H-imidazo[4,5-c]pyridazine], the chromatographic logP in data set [1] is 3.76.
